Consider six compounds from publication PMC6123649, “Structural basis for specific inhibition of the highly sensitive ShHTL7 receptor” (EMBO Reports, 2018).

SMILES strings stand for the structures. Where two headings read alike, the source gives them in different places.

Test [1] concerns the target T1, ShHTL7 (Striga hermonthica, UniProt A0A0M3PNA2).
T1 sequence (A0A0M3PNA2 1-271): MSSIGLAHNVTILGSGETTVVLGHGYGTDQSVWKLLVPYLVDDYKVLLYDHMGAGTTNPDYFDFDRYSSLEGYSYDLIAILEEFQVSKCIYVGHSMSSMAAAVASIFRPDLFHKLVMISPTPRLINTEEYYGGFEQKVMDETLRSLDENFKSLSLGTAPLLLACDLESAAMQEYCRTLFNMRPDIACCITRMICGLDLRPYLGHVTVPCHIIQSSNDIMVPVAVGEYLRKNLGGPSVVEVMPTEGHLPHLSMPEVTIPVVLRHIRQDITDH
The test is described as follows: Yoshimulactone Green (YLG) hydrolysis competition assay. It is filed as biochemical. As for the experimental part: In vitro YLG hydrolysis assays were performed using 3 μM of ShHTL7, ShHTL7‐L143Y, AtD14, and OsD14 in a reaction buffer (1× PBS) with 0.1% dimethyl sulfoxide (DMSO) in a 100 μl volume on a 96‐well black plate (Greiner). The fluorescent intensity was measured by SpectraMax i3 (Molecular Devices) using an excitation wavelength of 480 nm and a detection wavelength of 520 nm. […] Protein‐Triton mixes were pre‐incubated for 30 min. 1 μM YLG (Tokyo Chemical Industry Co. Ltd.) was then added, and the assay was incubated for 60 min. The change in fluorescence observed over the course of 1 h incubation of YLG in buffer without protein was subtracted from the data collected in the presence of protein. The resulting relative fluorescence values were analyzed. The inhibitory curves and IC50 values were plotted using GraphPad (Prism 6) four‐parameter logistic curve. The rate of YLG hydrolysis by ShHTL7 was recorded following the above method at 10‐min interval for 2 h.

Test [2] concerns the target T1, ShHTL7. The test is described as follows: Microscale thermophoresis (MST). Format: binding. The protocol:
ShHTL7 was N‐terminally labeled with RED dye (NT‐647) following the protocol from manufacturer (NanoTemper, Germany). Free dye was removed by passing through the Sephadex G‐25 column. Serial dilutions of unlabeled Triton X‐100, GR24, and PAA ranging from 25 μM to sub‐nanomolar range were mixed with 20 nM of NT‐647‐labeled ShHTL7 in buffer (50 mM Tris–HCl, 150 mM NaCl, 0.005% Tween‐20) and incubated for 2.5 h in the studies for Triton X‐100 and PAA except with GR24, and it was recorded after 10‐min incubation. About 10 μl of sample was loaded into premium monolith NT capillaries, and assays were carried out in a NanoTemper Monolith NT.015T. The red fluorescence was excited by a light‐emitting diode, and its emission was recorded on the focused part of capillaries. Using laser diode, a microscopic temperature gradient was created at the same location and the fluorescence depletion was measured. K d values were determined by plotting the concentrations of unlabeled ligands against the changes in fluorescent thermophoresis signal, and the data were analyzed using the NanoTemper analysis software.
In general terms: Microscale thermophoresis detects binding through changes in fluorescence in a small temperature gradient.

Test [3] addresses T1, ShHTL7. The test is described as follows: Intrinsic tryptophan fluorescence assay. It is filed as binding.
Test [4] has as its target T1, ShHTL7. In words: Differential static light scattering (DSLS), aggregation temperature. It is filed as binding. The conditions noted are these: 10 μM protein, varying compound concentrations. As for the experimental part: The specific aggregation temperature, T agg, at which ShHTL7, ShHTL7L143Y, AtD14, and OsD14 aggregated in the presence or absence of Triton X‐100, GR24, and PAA was measured using DSLS on the Stargazer system (Harbinger Biotechnology and Engineering Corporation, Markham, Canada). Protein samples at a concentration of 10 μM were overlaid with mineral oil in a clear bottom 384‐well black plate (Corning) and heated from 20 to 95°C at 1°C/min; light scattering was detected by a CCD camera every 0.5°C in the presence or absence of varying concentrations of Triton X‐100, GR24, and PAA yielding the difference in aggregation temperature at a particular concentration from apoproteins (ΔT agg). Data were normalized, and ΔT agg plotted against the Triton X‐100, GR24, and PAA concentration. Resulting data were plotted to determine the change in T agg of all proteins when bound to Triton X‐100, GR24, and PAA using GraphPad (Prism 6).

Test [5] deals with T1, ShHTL7. In words: Drug affinity response target stability (DARTS) assay. It is filed as binding. The conditions noted are these: 100 μM compound; proteinase K 10 μg/ml. The protocol: ShHTL7 and mutants were diluted to a concentration of 30 μM in 50 mM Tris–HCl pH 7.5, 150 mM NaCl, 0.005% Tween‐20, incubated with GR24 at final concentration of 100 μM for 5 min, and separately with 100 μM Triton X‐100 for 2 h. One sample was kept aside for use as an undigested control. Proteinase K (Hampton Research) was then added to ShHTL7 protein to a final protease concentration of 10 μg/ml. Reactions were incubated at room temperature for 5 min and then SDS–PAGE loading buffer was added to stop the reaction, and the samples were immediately boiled for 3 min. Equal amounts of each sample, corresponding to 10 μg of protein, were run on a 4–20% gradient polyacrylamide gel (Bio‐Rad) and analyzed by Coomassie Blue staining 32.

In test [6] the target is T1, ShHTL7. The conditions noted are these: cited from earlier work.
For the next test, the system named is ShHTL4‐6. On the set-up: method as in PMID 26293962. The note with it: transgenic A. thaliana, read-out: EC50 values for GR24; cited from earlier work.
Test [7] concerns the target T1, ShHTL7. On the set-up: method as in PMID 26293962, PMID 26450211. The conditions noted are these: read-out: IC50 for GR24, in vitro YLG assay; recombinant ShHTL7; cited from earlier work.
The test system of a further test is ShHTL6. On the set-up: method as in PMID 26293962, PMID 26450211. The note with it: recombinant ShHTL6; read-out: IC50 for GR24, in vitro YLG assay; cited from earlier work.
The test system of the next test is Striga hermonthica seeds. In words: Striga hermonthica germination bioassay. Format: in vivo. The note with it: for effect on GR24-induced Striga germination: n‐dodecyl‐β‐D‐maltoside at 15 and 1.5 µM, same conditions as Triton. The protocol: Striga hermonthica seeds were collected from Sorghum bicolor field in Sudan. For germination bioassays, Striga seeds were first sterilized and pre‐conditioned as described before 31. […] Triton X‐100/GR24 mixtures were applied (50 μl per disk) in four replicates. Corresponding volumes of GR24 and sterile MiliQ water were included as positive and negative control, respectively. The petri dishes were sealed with parafilm, enfolded with aluminum foil, and incubated for 48 h at 30°C. The germinated (seeds with radicle emerging through the seed coat) and non‐germinated Striga seeds were recorded under a binocular, and germination percentage was calculated.

As for `CC(C)(C)CC(C)(C)c1ccc(OCCO)cc1` [4-ter-octylphenol Monoethoxylate, 4‐ter‐octylphenol monoethoxylate], the concentration for half-maximal inhibition (IC50) (usually the concentration that inhibits the measured activity by half) at ShHTL7 [1] stood at 9240 ± 3170 nM.

Turning to `CC(C)(C)CC(C)(C)c1ccc(OCCOCCO)cc1` [4-ter-octylphenol diethoxylate, 4‐ter‐octylphenol diethoxylate], the IC50 at ShHTL7 [1] was 7480 ± 2130 nM.

Consider `CC1=CC(O/C=C2/C(=O)OC3c4ccccc4CC23)OC1=O` (stereo not shown) [GR24], for which the equilibrium dissociation constant (Kd) (in general, the free concentration of one partner at which half of the binding sites on the other are occupied at equilibrium, for simple one-to-one binding) at ShHTL7 [2] came to 920 ± 10 nM; on ShHTL7 [3], 390 ± 50 nM. The IC50 at ShHTL7 [1] is 870 ± 60 nM; on ShHTL7 [7], about 500 nM; in the test with ShHTL6, about 500 nM. The “effect on ShHTL7 aggregation temperature (T agg)” value (from here on “effect … (T agg)”) at ShHTL7 [4] is listed as “destabilized”. For the same compound, the “protection of ShHTL7 from digestion by proteinase K” value at ShHTL7 [5] is given as “efficiently protected”. Besides, the “EC50 of GR24 for ShHTL7 in transgenic Arabidopsis” value at ShHTL7 [6] is “picomolar range”. In addition, the EC50 (usually the concentration at which the effect is half-maximal) was 0.0175 nM on ShHTL7 [6] (read-out: EC50 (vs. GR24), seed germination in transgenic Arabidopsis lines expressing ShHTL7, ref Toh et al., 2015 (ref. 22)) and 10 to 300 nM with ShHTL4‐6.

`CC(C)(C)CC(C)(C)c1ccc(OCC(=O)O)cc1` [PAA, 2‐[4‐(2,4,4‐trimethylpentan‐2‐yl)phenoxy]acetic acid] had a Kd at ShHTL7 [2] of 1700 ± 240 nM. In addition, the half-maximal inhibitory concentration (IC50) on ShHTL7 [1] came out at 1480 nM. Moreover, the “effect … (T agg)” value on ShHTL7 [4] is recorded as “stabilized”. The inhibition (as a rule, the drop in the measured response relative to a control, in per cent) at 10 µM with Striga hermonthica seeds (Striga hermonthica, 48 h, read-out: inhibition of S. hermonthica germination) was at most 40%.

For the compound `CCOC(=O)c1ccccc1-c1c2ccc(=O)cc-2oc2cc(OC3C=C(C)C(=O)O3)ccc12` (stereo not shown) [YLG, reference compound], the “time for hydrolysis of YLG by ShHTL7” value on ShHTL7 [1] (3 μM ShHTL7, 1 μM YLG, absence of Triton) is given as at most 50 min.

On to `CCCCCCCCCCCCO[C@@H]1O[C@H](CO)[C@@H](O[C@H]2O[C@H](CO)[C@@H](O)[C@H](O)[C@H]2O)[C@H](O)[C@H]1O` [n‐dodecyl‐β‐D‐maltoside, reference compound], for which the “binding to ShHTL7 (MST)” value on ShHTL7 [2] (authors' reply in peer review file) is reported as “does neither bind”. Further, the “effect … (T agg)” value is listed as “did not increase” at ShHTL7 [4] and “nor increase Tagg” at ShHTL7 [4] (listed as nDM). For the same compound, the “effect on GR24-induced Striga germination” value in the test with Striga hermonthica seeds was “did not affect germination”; in the test on Striga hermonthica seeds (listed as nDM), “does not block germination”.
